Results on 89 molecules are retold here after a melting point compilation (Tetko et al.; mined from patent text by program, amines drawn as free bases though some values may be those of a salt).

Molecules are shown by their SMILES.

`CS(=O)(=O)Nc1cccc(Nc2nc(N3CCCC3)c3nc[nH]c3n2)c1` had a melting point of 164 to 168 °C.
As for `O=C1CCCC(CN2CC=C(c3ccccc3)CC2)C1` (centres undefined), the figure is 56 to 59 °C.
The molecule `Nc1ccc(NC(=O)c2ccc(CNC(=O)OCc3cccnc3)cc2)cc1` yielded a melting point of 204 to 205 °C.
As for `CCCc1nc2c(N)nc3cc(Oc4ccc(C#N)cc4)ccc3c2n1CC(C)C`, the figure is 223 to 225 °C.
On to `CCOC(=O)C1=C(O)c2cc3ccccc3n2CCC1`, for which the melting point fell in the range of 74 to 81 °C.
The same measure for `CC(C)c1nn(C(=O)NC(C)(C)CCc2ccccc2Cl)c(=O)n1N`: 159 °C.
As to `CCOC(=O)CCC1CCN(C(=O)[C@H](C)NC(=O)c2ccc(C#N)cc2)CC1`, the melting point lay within 108 to 109 °C.
`Cc1ccccc1-c1c2c(cc3ccc4c(c13)OCO4)C(=O)NC2` came in with a melting point of 252 to 255 °C.
As for `CN(C)c1ccnc(-c2ccncc2)n1`, the melting point was in the range of 109 to 110 °C.
Take `COC(=O)c1cc(Cl)cc(I)c1O`: the melting point was 143 to 145 °C.
As for `CC(C)(C)c1cc(-c2nc(S)sc2-c2ccccc2)cc(C(C)(C)C)c1O`, the figure is 168 to 171 °C; as for `CC(C)C[C@H]1CNC[C@H]1C(=O)O` (relative stereo), 260 to 262 °C; as for `CC(O)COc1cccc2oc(C(N)=O)cc(=O)c12` (centres undefined), 229 to 231 °C.
`COC(=O)c1ccc(Oc2cc3c(cc2C(C)C)C(C)(C)CCC3(C)C)cc1` gave a melting point of 115 to 116 °C.
`O=C1NC(=O)c2c1c(-c1ccc(CO)cc1)cc1[nH]c3ccc(O)cc3c21` gave a melting point of 266 to 271 °C.
`Cn1cc(-c2cc(Cl)cc(Cl)c2)c(=O)c(-c2cccc(C(F)(F)F)c2)c1` yielded a melting point of 156 to 160 °C.
As for `C=CCOc1ccccc1OCC(O)CNCCOc1ccc(O)c(C(N)=O)c1` (centres undefined), the figure is 147 to 148 °C; as for `Cc1nc(-c2ccc(C(=N)NO)cc2)sc1C(=O)N[C@H](C)[C@](O)(Cn1cncn1)c1ccc(F)cc1F`, 135 to 148 °C.
`Nc1cccc(CN2CCC(OC(=O)c3ccccc3)CC2)c1`: the melting point lay within 95 to 97 °C.
The same measure for `COc1nc(NC(=S)NS(=O)(=O)c2ccccc2)nc(OC)n1`: 148 to 150 °C; for `Cc1nc(C)c(-c2ccnc(Nc3cccc(CN)c3)n2)s1`: 183 to 184 °C.
Molecule `Cc1cc(NS(=O)(=O)c2ccccc2F)cc(C)c1S(=O)(=O)C[N+](=O)[O-]` yielded a melting point of 175 to 177 °C.
The same measure for `O=c1ccoc(C(O)c2cccnc2)c1O` (centres undefined): 176 to 180 °C; for `CN1C(c2ccc(NS(C)(=O)=O)cc2)NCc2ccccc2C1c1ccccc1` (centres undefined): 124 to 126 °C.
As for `Cc1cc(-c2cccc(C3=Nc4ccc(-c5ccccc5F)cc4NC(=O)C3)c2)on1`, the melting point was 222 to 224 °C.
The same measure for `COc1ccccc1-n1c(=O)[nH]c2c(C(N)=O)nc(-c3ccc(C(N)=O)cc3)nc21`: over 350 °C.
The same measure for `CCC1C2C3Cc4ccc(OC)c5c4C2(CCN3C)C(O5)C(O)C1(C)C` (centres undefined): 104 to 108 °C; for `CC(C)(C)OC(=O)NC1C=CCC2C(=O)NC(=O)C12` (centres undefined): 158 to 160 °C.
For the molecule `COC(=O)c1cccn2ccnc12`, the melting point lay within 67 to 69 °C.
The same measure for `O=C(CCl)NCC1CCCCC1`: 85 to 86 °C; for `Cc1cc(C)c(N2c3ccccc3Sc3ccccc32)c(C)c1`: 192 to 200 °C.
As for `CCCc1c(C(=O)C(C)C)c2ccc(C(=O)O)cc2n1Cc1ccccc1C`, the figure is 186 to 188 °C; as for `CN1C[C@H](O)C[C@H]1CCOc1ccc(Cl)cc1CCc1ccccc1`, 65 to 68 °C.
As for `O[C@@H]1CNC[C@H](c2ccc(C(F)(F)F)cc2)C1` (relative stereo), the figure is 189 to 192 °C; as for `O=c1[nH]c2ccc(F)c(F)c2c(=O)o1`, over 240 °C; as for `CC1CCC2(OC1)OC1CC3C4CCC5CC(=O)CCC5(C)C4CCC3(C)C1C2C` (centres undefined), 209 to 211 °C.
As to `NC1(NC(=O)C(F)(F)F)CN(c2c(F)cc3c(=O)c(C(=O)O)cn(-c4ccc(F)cc4F)c3c2F)C1`, the melting point lay in the range of 190 to 196 °C.
The same measure for `CCCc1ccc(C(=O)Nc2ccc3c(c2)CCC3=O)cc1`: 181 to 184 °C.
As to `CCCCCCCCc1ccc(CCC(C)(CCOC(C)=O)NC(C)=O)cc1` (centres undefined), the melting point lay within 137 to 141 °C.
In turn, `O=C(Nc1ccc(F)c(F)c1)C12CC3CC(CC(C3)C1)C2` showed a melting point of 168 to 170 °C.
In turn, `FC1(F)CCC(n2ncc3c(Br)cncc32)CC1` displayed a melting point of 172 to 173 °C.
Molecule `CN(c1c(Cl)ccc2cc(C(N)=S)[nH]c12)S(=O)(=O)c1cccs1` came in with a melting point of 200 to 201 °C.
The molecule `COC(=O)c1csc(-c2ccc([N+](=O)[O-])cc2)n1` had a melting point of 224 to 227 °C.
As for `CNC1=NN(C(=O)c2cccc([N+](=O)[O-])c2)C(C)(C)S1`, the figure is 130 to 133 °C.
As for `N#Cc1ccc(N2CCN(Cc3cnc4c(c3)NC(=O)[C@@H]3CCCN43)CC2)c(F)c1`, the figure is 226 °C; as for `C=CCNc1c(C(C)=O)cnc2cn[nH]c12`, 211 to 213 °C; as for `CCOCCn1c(N2CCCN(CCC3(c4ccc(OC)c(OC)c4)CCN(C(=O)c4cc(OC)c(OC)c(OC)c4)C3)CC2)nc2ccccc21` (centres undefined), 90 to 100 °C.
The same measure for `CCCCCC1CCC(C2CCC(CC(=O)CC)CC2)CC1` (centres undefined): 107 °C; for `CC(=O)OCn1cc(Cl)c(-c2cc(Cl)cc(Cl)c2)n1`: 95 °C; for `O=C(c1ccccc1)c1cc(-c2ccncc2)sc1-c1ccncc1`: 168 to 170 °C.
For `COC(=O)C(c1ccccc1)c1ccccn1` (racemic), the melting point is 74 °C.
The same measure for `Cc1cc(C#N)sc1-c1ccc2c(c1)C(C)(C)OC(=O)N2`: 195 to 200 °C.
As for `NS(=O)(=O)c1ccc(S(=O)(=O)NCc2cccs2)s1`, the melting point lay within 146 to 148 °C.
Turning to `COc1cc(C(=O)c2ncc3ccc(NC(=O)OC(C)(C)C)cn23)ccc1[N+](=O)[O-]`, the melting point was 200 °C.
As for `CC1(C)Oc2ccc(S(=O)(=O)c3ccccc3)cc2[C@@H](N2CCCC2=O)[C@@H]1O` (relative stereo), the figure is 200 to 201 °C.
As for `CCOC(=N)C1(O)CCCc2ccccc21` (centres undefined), the figure is 84 to 86 °C; as for `CCC(C)(C)N1CCNC(S(=O)(=O)Nc2ccc3[nH]c(C(=O)N4CCN(c5ncccc5NC(C)C)CC4)cc3c2)C1` (centres undefined), 158 to 160 °C; as for `FC(F)(F)c1cc(Cl)c(-c2nc(C(F)(F)F)c(Br)[nH]2)c(Cl)c1`, 295 °C.
The same measure for `CC(=O)c1ccccc1CC1CNC(=O)O1` (centres undefined): 85 to 86 °C.
`CCCCCC(O)CCCN(CCCCCCC(=O)O)C(N)=O` (centres undefined) had a melting point of 75 to 76 °C.
Take `CCOC(=O)c1cn(Cc2cccnc2)nc1OCc1ccc(OCc2nc(-c3ccco3)oc2C)c(OC)c1`: the melting point lay within 131 to 132 °C.
As for `COC(C)(C)c1cccc(Cn2nnc3c(-c4ccc(C)o4)nc(N)nc32)n1`, the figure is 178 °C; as for `CCOC(=O)c1cnc2ccn(-c3ccccc3)n2c1=O`, 187 to 190 °C; as for `O=P(O)(O)CCCCCCCCCCCC(F)(F)C(F)(F)C(F)(F)C(F)(F)C(F)(F)C(F)(F)C(F)(F)C(F)(F)F`, 115 to 117 °C.
`COc1ccc(C(=O)OC2C(OC)C=C(C)C(=O)CC2(C)C)cc1` (centres undefined) yielded a melting point of 100 to 101 °C.
The same measure for `CCOC(=O)C(=CNNc1c(Cl)cc(C(F)(F)F)cc1Cl)C(C)=O`: 75 to 76 °C.
The same measure for `O=S(=O)(c1ccc(Cl)cc1)N1CCC[C@@H](Nc2nccc(-c3c(-c4cccc(O)c4)nc4sccn34)n2)C1`: 174 to 177 °C.
The same measure for `CCN(CC)Cc1nc(-c2ncn3c2CN(C)C(=O)c2ccccc2-3)no1`: 153 to 154 °C; for `Cc1c[nH]c2c1C(=O)CC(c1cccs1)C2` (centres undefined): 195 to 196 °C; for `O=C(O)Cc1c(C(=O)c2cc(C(=O)O)no2)[nH]c2ccc(Cl)cc12`: 200 to 205 °C.
With `Cc1cc(C#C[Si](C)(C)C)ccc1-n1c(C(F)(F)F)nn(C)c1=S`, the melting point was 90 to 93 °C.
For the molecule `NCc1ccc2c(c1)c(C1CCN(CCN3CCNC3=O)CC1)cn2-c1ccc(F)cc1`, the melting point fell in the range of 171 to 175 °C.
As for `CCCCCCNC(=O)Oc1ccc(Oc2ccccc2)cc1`, the figure is 57 to 59 °C; as for `O=C(Cc1c(F)cccc1C(=O)O)Nc1cccc(/C=C/c2nc(C3CCC3)cs2)c1`, 221 to 222 °C; as for `Nc1ccccc1NC(=O)c1ccc(COC(=O)NCc2cccnc2)cc1`, 139 to 141 °C.
The same measure for `CCCOC1=CC(=O)C(C(=O)OCC)C(c2ccc(C)cc2)C1` (centres undefined): 106 to 107 °C.
For `CN(C)C1CC=C(c2c[nH]c3ccc(N)cc23)CC1` (centres undefined), the melting point was 63 to 65 °C.
As for `CCCCc1cccn2c(=O)c(-c3nnn[nH]3)cnc12`, the figure is 256 to 258 °C; as for `CC(=O)N(CC(=O)N1c2ccccc2N(Cc2ccccc2)C(=O)[C@H]2CCC[C@H]21)Cc1ccccc1` (relative stereo), 179 to 181 °C.
Consider `CC(C)(C)OC(=O)NNC(=O)C=Cc1cc(=O)c(OCc2ccccc2)c[nH]1`, for which the melting point stood at 141 °C.
As for `Cc1ccc(S(=O)(=O)Nc2ccc(C#N)cc2C#N)cc1`, the figure is 200 to 206 °C; as for `Cc1cc(=O)n2cccc(O)c2n1`, 144 to 145 °C; as for `CN(C)c1cccc(-c2cccc(-c3ccnc4c(C(=O)c5cccs5)cnn34)c2)c1`, 167 to 169 °C.
The same measure for `CCN1c2ncccc2C(=O)Nc2c(C)cc(OC)nc21`: 249 to 251 °C; for `CCC(c1ccncc1)N1CCCNS1(=O)=O` (centres undefined): 90 to 105 °C; for `CCCCc1nc(C(=O)c2ccccc2)c(C#N)[nH]1`: 121 to 122 °C.
As for `CCOC(=O)NC(=S)Nc1cc(NC(=O)OC)ccc1NC(=O)CN(C)C`, the figure is 171 to 172 °C; as for `COc1cc(OC)c(-c2cccs2)cc1/C=C/C(=O)c1ccccc1C(=O)O`, 196 to 198 °C.
`Cc1nc(Nc2ccccc2)sc1C(=O)c1ccc(N)c([N+](=O)[O-])c1` had a melting point of 235 to 239 °C.
